“And” between values parts separate entries of the source, which are not always exact repeats. Equal values may be shown once.
Target: coca-5HT3 (α7(L141G,G175K,Y210F,Y217F)–5HT3) (Homo sapiens, UniProt P36544, G175K/L141G/Y210F/Y217F)
Assay: Membrane potential assay, coca-5HT3 in HEK293
Conditions: for Response / Max normalized Response: coca-5HT3; for Max normalized Response: ED Fig 3b

Chain of coca-5HT3 (α7(L141G,G175K,Y210F,Y217F)–5HT3) (P36544 23-224 L141G/G175K/Y210F/Y217F): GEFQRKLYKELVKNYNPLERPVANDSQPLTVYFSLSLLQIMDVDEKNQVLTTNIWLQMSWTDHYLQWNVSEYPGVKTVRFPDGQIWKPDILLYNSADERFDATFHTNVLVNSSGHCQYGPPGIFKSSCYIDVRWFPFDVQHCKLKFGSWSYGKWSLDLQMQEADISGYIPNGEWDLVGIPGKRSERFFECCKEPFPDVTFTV
Chain of coca-5HT3 (α7(L141G,G175K,Y210F,Y217F)–5HT3) (P23979 242-489, further chain): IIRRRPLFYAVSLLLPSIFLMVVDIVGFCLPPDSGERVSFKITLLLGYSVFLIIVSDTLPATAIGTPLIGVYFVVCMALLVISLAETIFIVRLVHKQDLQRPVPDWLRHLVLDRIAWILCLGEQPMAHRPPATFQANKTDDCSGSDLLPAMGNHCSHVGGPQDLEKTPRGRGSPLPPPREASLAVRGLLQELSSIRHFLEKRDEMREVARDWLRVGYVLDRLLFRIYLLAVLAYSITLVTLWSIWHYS

## COC(=O)[C@H]1[C@@H](OC(=O)c2ccccc2)C[C@@H]2CC[C@H]1N2C [cocaine]
EC50 at a75HT3 L141G G175K Y210F Y217F, AVG, sheet 1e
  EC50: 1.58 µM
EC50 at a75HT3 L141G G175K Y210F Y217F, sheet 1e, single determinations
  EC50: 1.8 µM and 1 µM and 2.64 µM and 0.81 µM and 1.25 µM and 0.84 µM and 2.8 µM
Conc 0.0137 uM, ED Fig. 2c
  Response: 0.067
Conc 0.0137174 uM, ED Fig. 2b
  Response: 0.067
Conc 0.123 uM, ED Fig. 2c
  Response: 0.063
Conc 0.123457 uM, ED Fig. 2b
  Response: 0.063
Conc 0.137 uM
  Max normalized Response: 0.07313
Conc 0.37 uM, ED Fig. 2c
  Response: 0.098
Conc 0.37037 uM, ED Fig. 2b
  Response: 0.098
Conc 0.457247 uM, ED Fig 3a
  Response: 0.103
Conc 1.11111 uM, ED Fig. 2b
  Response: 0.363
Conc 1.37174 uM, ED Fig 3a
  Response: 0.237
Conc 3.33333 uM, ED Fig. 2b
  Response: 0.825
Conc 3.7 uM
  Max normalized Response: 0.5001
Conc 10 uM, ED Fig. 2b
  Response: 1.02
Conc 10 uM, ED Fig. 2c
  Response: 1.023
Conc 11.1 uM
  Max normalized Response: 0.7653
Conc 12.3457 uM, ED Fig 3a
  Response: 1.106
Conc 30 uM, ED Fig. 2b
  Response: 0.86
Conc 30 uM, ED Fig. 2c
  Response: 0.864
Conc 33.3 uM
  Max normalized Response: 0.8419
Conc 37.037 uM, ED Fig 3a
  Response: 0.885
Conc 100 uM
  Max normalized Response: 0.9656
half-maximum effective concentration (EC50), HEK293, fluorescence membrane potential assay
  EC50: 1.5 ± 0.3 µM
Intravenous dose in rats, Pan et al 1991
  peak brain cocaine concentration relative to EC50 for coca-5HT3: approximately 1.5 fold

Source: paper PMC12527922, “Cocaine chemogenetics blunts drug-seeking by synthetic physiology” (Nature, 2025)
